Data from the supplement of paper PMC10307832.

Experiments:
Experiment in all cases: relative viability (nuclei count vs DMSO), 5 days (fraction); higher = more cells survive
[1] = tested on: NCI-H2126
Outline: (§1)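 Lung cancer cell lines in 1536-well plates were dosed by pin tool the day after seeding, either with one drug alone or with a fixed anchor-drug dose plus five library-drug doses (not always all listed) in √10 steps. After 5 days, cells were fixed and their nuclei stained in one step (final 0.05% Triton X-100, 1% formaldehyde, 1 ug/ml Hoechst), then counted on 4× images. Relative viability is the nuclei count in treated wells divided by that in vehicle wells. Values are medians of duplicate plates.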

[2] = tested on: LC-2-ad
Outline: as §1

[3] = tested on: EPLC-272H
Outline: as §1

[4] = tested on: ChaGo-K-1
Outline: as §1

[5] = tested on: PC-14
Outline: as §1

[6] = tested on: 201T
Outline: as §1

[7] = tested on: NCI-H661
Outline: as §1

[8] = tested on: NCI-H1666
Outline: as §1

[9] = tested on: RERF-LC-KJ
Outline: as §1

[10] = tested on: NCI-H520
Outline: as §1

[11] = tested on: NCI-H650
Outline: as §1

[12] = tested on: HCC-78
Outline: as §1

[13] = tested on: COR-L 105
Outline: as §1

[14] = tested on: NCI-H23
Outline: as §1

[15] = tested on: NCI-H2405
Outline: as §1

[16] = tested on: NCI-H647
Outline: as §1

[17] = tested on: HCC-827
Outline: as §1

[18] = tested on: LCLC-97TM1
Outline: as §1

[19] = tested on: NCI-H322M
Outline: as §1

[20] = tested on: NCI-H2087
Outline: as §1

[21] = tested on: NCI-H2347
Outline: as §1

[22] = tested on: NCI-H1915
Outline: as §1

[23] = tested on: H3255
Outline: as §1

C=C1C(=O)O[C@@H](CCCCCCCC)[C@@H]1C(=O)O [C-75] + COc1cc2c(Oc3ccc(NC(=O)C4(C(=O)Nc5ccc(F)cc5)CC4)cc3F)ccnc2cc1OCCCN1CCOCC1 [Foretinib] (partner 0.25 µM)
relative viability ([1]; first compound 0.08 µM): 1.1
relative viability ([1]; first compound 0.253 µM): 1.27
relative viability ([1]; first compound 0.8 µM): 1.2
relative viability ([1]; first compound 2.53 µM): 1.08
relative viability ([1]; first compound 8 µM): 1.07
relative viability ([2]; first compound 0.08 µM): 0.937
relative viability ([2]; first compound 0.253 µM): 0.8
relative viability ([2]; first compound 0.8 µM): 0.859
relative viability ([2]; first compound 2.53 µM): 0.724
relative viability ([2]; first compound 8 µM): 0.889
relative viability ([3]; first compound 0.08 µM): 0.686
relative viability ([3]; first compound 0.253 µM): 0.936
relative viability ([3]; first compound 0.8 µM): 0.554
relative viability ([3]; first compound 2.53 µM): 0.429
relative viability ([3]; first compound 8 µM): 0.386
relative viability ([4]; first compound 0.08 µM): 0.915
relative viability ([4]; first compound 0.253 µM): 0.887
relative viability ([4]; first compound 0.8 µM): 0.894
relative viability ([4]; first compound 2.53 µM): 0.925
relative viability ([4]; first compound 8 µM): 0.874
relative viability ([5]; first compound 0.08 µM): 0.949
relative viability ([5]; first compound 0.253 µM): 0.911
relative viability ([5]; first compound 0.8 µM): 0.956
relative viability ([5]; first compound 2.53 µM): 0.74
relative viability ([5]; first compound 8 µM): 0.891
relative viability ([6]; first compound 0.08 µM): 1.08
relative viability ([6]; first compound 0.253 µM): 1.24
relative viability ([6]; first compound 0.8 µM): 1.08
relative viability ([6]; first compound 2.53 µM): 0.64
relative viability ([6]; first compound 8 µM): 1.03
relative viability ([7]; first compound 0.08 µM): 1.06
relative viability ([7]; first compound 0.253 µM): 1.01
relative viability ([7]; first compound 0.8 µM): 0.998
relative viability ([7]; first compound 2.53 µM): 0.901
relative viability ([7]; first compound 8 µM): 0.896
relative viability ([8]; first compound 0.08 µM): 0.991
relative viability ([8]; first compound 0.253 µM): 1.01
relative viability ([8]; first compound 0.8 µM): 0.969
relative viability ([8]; first compound 2.53 µM): 0.732
relative viability ([8]; first compound 8 µM): 0.777
relative viability ([9]; first compound 0.08 µM): 0.94
relative viability ([9]; first compound 0.253 µM): 0.973
relative viability ([9]; first compound 0.8 µM): 0.909
relative viability ([9]; first compound 2.53 µM): 0.797
relative viability ([9]; first compound 8 µM): 0.961
relative viability ([10]; first compound 0.08 µM): 0.728
relative viability ([10]; first compound 0.253 µM): 0.95
relative viability ([10]; first compound 0.8 µM): 0.831
relative viability ([10]; first compound 2.53 µM): 0.909
relative viability ([10]; first compound 8 µM): 0.794
relative viability ([11]; first compound 0.08 µM): 1
relative viability ([11]; first compound 0.253 µM): 0.818
relative viability ([11]; first compound 0.8 µM): 1.04
relative viability ([11]; first compound 2.53 µM): 0.995
relative viability ([11]; first compound 8 µM): 0.993
relative viability ([12]; first compound 0.08 µM): 0.553
relative viability ([12]; first compound 0.253 µM): 0.554
relative viability ([12]; first compound 0.8 µM): 0.577
relative viability ([12]; first compound 2.53 µM): 0.421
relative viability ([12]; first compound 8 µM): 0.687
relative viability ([13]; first compound 0.08 µM): 0.934
relative viability ([13]; first compound 0.253 µM): 1.17
relative viability ([13]; first compound 0.8 µM): 1.12
relative viability ([13]; first compound 2.53 µM): 0.828
relative viability ([13]; first compound 8 µM): 1
relative viability ([14]; first compound 0.08 µM): 0.795
relative viability ([14]; first compound 0.253 µM): 1.08
relative viability ([14]; first compound 0.8 µM): 1.02
relative viability ([14]; first compound 2.53 µM): 0.808
relative viability ([14]; first compound 8 µM): 0.881
relative viability ([15]; first compound 0.08 µM): 1.05
relative viability ([15]; first compound 0.253 µM): 1
relative viability ([15]; first compound 0.8 µM): 1.05
relative viability ([15]; first compound 2.53 µM): 0.882
relative viability ([15]; first compound 8 µM): 1.05
relative viability ([16]; first compound 0.08 µM): 1.23
relative viability ([16]; first compound 0.253 µM): 1.12
relative viability ([16]; first compound 0.8 µM): 0.998
relative viability ([16]; first compound 2.53 µM): 1.18
relative viability ([16]; first compound 8 µM): 0.97
relative viability ([17]; first compound 0.08 µM): 1.02
relative viability ([17]; first compound 0.253 µM): 1.05
relative viability ([17]; first compound 0.8 µM): 1.04
relative viability ([17]; first compound 2.53 µM): 0.965
relative viability ([17]; first compound 8 µM): 0.945
relative viability ([18]; first compound 0.08 µM): 0.934
relative viability ([18]; first compound 0.253 µM): 1.01
relative viability ([18]; first compound 0.8 µM): 0.951
relative viability ([18]; first compound 2.53 µM): 0.847
relative viability ([18]; first compound 8 µM): 0.926
relative viability ([19]; first compound 0.08 µM): 0.928
relative viability ([19]; first compound 0.253 µM): 1.33
relative viability ([19]; first compound 0.8 µM): 0.839
relative viability ([19]; first compound 2.53 µM): 0.902
relative viability ([19]; first compound 8 µM): 0.964
relative viability ([20]; first compound 0.08 µM): 1.15
relative viability ([20]; first compound 0.253 µM): 1.07
relative viability ([20]; first compound 0.8 µM): 0.943
relative viability ([20]; first compound 2.53 µM): 0.725
relative viability ([20]; first compound 8 µM): 0.891
relative viability ([21]; first compound 0.08 µM): 0.83
relative viability ([21]; first compound 0.253 µM): 1.21
relative viability ([21]; first compound 2.53 µM): 0.876
relative viability ([21]; first compound 8 µM): 0.472
relative viability ([22]; first compound 0.08 µM): 1.04
relative viability ([22]; first compound 0.253 µM): 1.1
relative viability ([22]; first compound 0.8 µM): 1.03
relative viability ([22]; first compound 2.53 µM): 1.07
relative viability ([22]; first compound 8 µM): 1.05
relative viability ([23]; first compound 0.08 µM): 0.837
relative viability ([23]; first compound 0.253 µM): 0.927
relative viability ([23]; first compound 0.8 µM): 0.73
relative viability ([23]; first compound 2.53 µM): 0.736
relative viability ([23]; first compound 8 µM): 0.983
